Data from patent US20110263693A1, “CELASTROL, GEDUNIN, AND DERIVATIVES THEREOF AS HSP90 INHIBITORS” (DANA-FARBER CANCER INSTITUTE, INC., priority 2006, published 2011).

Columns and labels:
[1] = system: androgen signaling signature in LNCaP cells; assay: GE-HTS androgen signaling signature assay / screen; conditions: LNCaP; for effect on the GE-HTS androgen signaling signature outside the screen: with and without 12 hours androgen pretreatment
[2] = system: HSP90; assay: HSP90 conformational change assay (bis-ANS); format: binding; conditions: purified HSP90 200 nM, bis-ANS 50 μM
Experimental: The final volume in each well was 100 μL. The plate was covered with foil and mixed for 30 s on a plate shaker before incubation for 60 min. at 37° C. Relative fluorescence units were measured using a SpectraMx Gemini XS spectrofluorometer (Molecular Devices Corporation, Sunnyvale, Calif.) at an excitation wavelength for bis-ANS of 393 nm and an emission wavelength of 484 nm. The data were acquired using the SOFTmaxPRO software (Molecular Devices Corporation, Sunnyvale, Calif.).

[3] = system: BCR-ABL1; assay: Western blot of HSP90 client BCR-ABL1 level; format: cell-based, human; conditions: for protein level of BCR-ABL1: 24 hr, several cell lines, concentration-dependent
Experimental: (§1) To more broadly establish the effects of celastrol and gedunin on the HSP90 pathway, we tested whether these compounds decrease the protein levels of other HSP90 clients.
(§2) Celastrol (Calbiochem) and gedunin (Gaia Chemicals) were solubilized in DMSO. LNCaP.FGC cells (ATCC) were grown in RPMI 1640 (ATCC) with 10% FBS. Ba/F3 cells stably expressing human FLT3, EGFR, and BCR-ABL1 were grown in RPMI 1640, 10% FBS, and 2 ng/ml IL-3. SKBr3 cells were grown in a 1:1 DME:F12 plus 10% FBS.

[4] = system: FLT3; assay: Western blot of HSP90 client FLT3 level; format: cell-based, human; conditions: for protein level of FLT3: 24 hr, several cell lines, concentration-dependent
Experimental: as §1, §2

[5] = system: EGFR; assay: Western blot of HSP90 client EGFR level; format: cell-based, human; conditions: 24 hr, several cell lines, concentration-dependent
Experimental: as §1, §2

[6] = target: HSP90α (Homo sapiens, UniProt P07900); assay: HSP90 ATP-binding assay (ATP-polyacrylamide pulldown from lysates of treated cells); format: cell-based; set-up: endogenous in cells; host or cells: LNCaP and K562; conditions: LNCaP and K562 cells treated 24 hr
Experimental: Given their inhibition of HSP90 clients, we next asked whether celastrol and gedunin affect HSP90 activity itself. To assess the effects on HSP90 activity within a cellular context, we treated LNCaP and K562 cells with celastrol or gedunin for 24 hr and subsequently tested the cellular HSP90's ATP-binding activity. ATP-binding activity was assayed by ATP-polyacrylamide pulldown of HSP90 from cell lysates, followed by western blot-based quantification (Bali et al., 2005). This assay identifies HSP90 inhibition, both direct and indirect, that alters HSP90 ATP-binding activity in cell lines (Bali et al., 2005, Soti et al., 2002). […] The decrease in ATP binding by HSP90 cannot be accounted for by changes in HSP90 level (FIG. 7E). Celastrol and gedunin therefore inhibit HSP90 activity itself in a cellular context, either directly or indirectly.
The ATP-binding assay was similar to that in previous reports (Bali et al., 2005, Soti et al., 2002). LNCaP and K562 cells were treated with celastrol and gedunin for 24 hr and then lysed in TNESV buffer (50 mM Tris, 2 mM EDTA, […], 1 mM activated sodium orthovanadate, 25 mM NaF, 1% Triton X-100 [pH 7.5]) for 30 min at 4° C. Lysates were spun for 30 min at 12,000 rpm at 4° C. […]

[7] = system: LNCaP cells; assay: Adherent cell growth by luminescent assay of ATP level (CellTiterGlo); format: cell-based; conditions: for LNCaP cell viability at higher concentrations: in the presence of androgen, above EC50 of androgen signaling inhibition; for adherent growth of androgen-stimulated LNCaP cells: luminescent assay of ATP levels
Experimental: (§3) To investigate the cellular consequences of celastrol- and gedunin-mediated inhibition, we assessed whether celastrol and gedunin activity results in decreased cell growth, consistent with AR inhibition. […] Second, the compounds' effects on anchorage-independent growth of LNCaP cells was assayed in soft agar (FIG. 6D).
(§4) Adherent cell growth was measured by luminescent assay of ATP level (CellTiterGlo, Promega). LNCaP cells were grown in charcoal-stripped media for 2 days prior to simultaneous treatment with 1 nM R1881 and the relevant compound. Synergy was assessed by analyzing the IC50 of one drug over a range of concentrations of the other drug and vice versa. The resulting concentration pairs were visualized by isobologram (Gessner, 1995). Anchorage independence was measured by soft agar assay (Hahn et al., 1999). Compounds were added to both agar layers. Colonies were scored after 3 weeks.
(§5) We also addressed whether celastrol and gedunin activity results in decreased cell growth consistent with inhibition of AR and other HSP90 clients. […] Below this concentration, an intermediate viability inhibition is seen.

[8] = system: AR; assay: Western blot of AR protein level; format: cell-based; conditions: for concentration at and above which AR levels are decreased / concentration giving almost complete ablation of AR levels: LNCaP cells, 24 hr
Experimental: We first asked whether celastrol and gedunin decrease the levels of AR itself. […] Celastrol decreased AR levels in LNCaP cells at 0.5 μM and above, while gedunin decreases their levels at 10 μM and above. […] These concentration-dependent effects on AR are consistent with the observed inhibitory effects on AR-mediated signaling.

[9] = system: LNCaP cells; assay: Soft agar assay of anchorage-independent growth; format: cell-based; conditions: for colony size in soft agar: LNCaP; for anchorage-independent growth of LNCaP cells (colony number): soft agar, celastrol 0.625 μM, compared with bicalutamide (casodex)
Experimental: as §3, §4

[10] = system: LNCaP cells; assay: Synergy with HSP90 inhibitors on cell growth by ATP level (isobologram); format: cell-based; conditions: 24 hr, low concentrations
Description: (§6) If celastrol and gedunin act on HSP90 function via a distinct mechanism from HSP90 ATP-binding site inhibition (Bagatell et al., 2005), they might act synergistically with existing HSP90 inhibitors. We therefore tested the combinatorial effects of these compounds with HSP90 inhibitors on HSP90 client signaling and viability. […] Celastrol and gedunin therefore act synergistically with existing modes of HSP90 ATP-binding site inhibition to inhibit HSP90 client signaling and viability in a cellular context, consistent with their inhibition of HSP90 via a distinct mechanism.
as §4

[11] = system: androgen signaling signature in LNCaP cells; assay: Synergy with HSP90 inhibitors on the androgen signaling signature (isobologram); format: cell-based; conditions: 24 hr, isobologram analysis
Description: as §6, §4

[12] = system: LNCaP prostate cancer cell; assay: Apoptosis induction in LNCaP cells; format: cell-based; conditions: at higher concentrations
Description: as §5

[13] = system: SKBR breast cancer cell line; assay: Apoptosis induction in SKBR cells; format: cell-based; conditions: to a greater extent than existing HSP90 ATP binding site inhibitors
[14] = Ba/F3 cells, relative to non-mutant

Row | Structure (SMILES) | effect on the GE-HTS androgen signaling signature outside the screen [1] | inhibition of the androgen signaling signature in the GE-HTS screen (strong / weak) ([1]; ~20 μM, 24 hr) | inhibition of HSP90 conformational changes induced by bis-ANS [2] | protein level of BCR-ABL1 [3] | protein level of FLT3 [4] | protein level of EGFR [5] | ATP-binding activity of HSP90α [6] | LNCaP cell viability at higher concentrations [7] | adherent growth of androgen-stimulated LNCaP cells [7] | concentration at and above which AR levels are decreased [8] | concentration giving almost complete ablation of AR levels [8] | colony size in soft agar [9] | anchorage-independent growth of LNCaP cells (colony number) [9] | combined effect with geldanamycin and 17-AAG on cell growth (ATP level) [10] | combined effect with geldanamycin and 17-AAG on the androgen signaling signature [11] | apoptosis in LNCaP cells [12] | apoptosis in SKBR breast cancer cell line [13] | sensitivity of BCR-ABL T315I point mutant to inhibition [3, 14] | sensitivity of FLT3 internal tandem duplication (ITD) mutant to inhibition [4, 14] | AR protein by immunoblotting ([8]; gedunin-treated LNCaP cells)
1 | CC1=C(O)C(=O)C=C2C1=CC=C1[C@@]2(C)CC[C@@]2(C)[C@@H]3C[C@](C)(C(=O)O)CC[C@]3(C)CC[C@]12C [celastrol] | inhibit the GE-HTS androgen signaling signature in a concentration-dependent manner | strong inhibition | binds purified HSP90 in vitro | lowered the protein levels | lowered the protein levels | lowered the protein levels | inhibited the ATP-binding activity | markedly decrease LNCaP prostate cancer cell viability | inhibit adherent and anchorage-independent growth | ≥ 0.5 µM | 1 µM | inhibited colony size | inhibited anchorage-independent growth to a similar degree as the AR competitive antagonist bicalutamide (casodex) | synergistically inhibit cell growth | mild synergy | induce apoptosis | induct apoptosis |  |  | 
2 | CC(=O)O[C@@H]1C[C@H]2C(C)(C)C(=O)C=C[C@]2(C)[C@H]2CC[C@@]3(C)[C@H](c4ccoc4)OC(=O)[C@H]4O[C@]43[C@@]21C [gedunin] | inhibit the GE-HTS androgen signaling signature in a concentration-dependent manner |  | the effect is not well seen | lowered the protein levels | lowered the protein levels | lowered the protein levels | inhibited the ATP-binding activity | markedly decrease LNCaP prostate cancer cell viability | inhibit adherent and anchorage-independent growth | ≥ 10 µM | 20 µM | inhibited colony size | inhibited anchorage-independent growth to a similar degree as the AR competitive antagonist bicalutamide (casodex) | synergistically inhibit cell growth | mild synergy | induce apoptosis | induct apoptosis | increased sensitivity | increased sensitivity | nearly entirely eliminated
